Columns and labels:
MRSA = assay: Resistance development study, serial passages; type: cell-based, S. aureus; settings: passaged at MIC/2
Procedure: MIC values of the compound 4 and vancomycin were determined against MRSA as described above. For the next day MIC experiment, the bacterial dilution was made by using the bacteria from sub-MIC concentration of the compounds (at MIC/2). Then, the concentration of this bacteria was adjusted to ˜10^5 CFU/mL based on OD600 and subjected to next MIC assay. After a 24 h incubation period, again bacterial dilution was prepared by using the bacterial suspension from sub-MIC concentration of the compound (at MIC/2) and assayed for another MIC experiment. The process was repeated for 25 passages, and the fold increase in MIC was determined. […] Thus bacteria were unable in acquiring resistance to this compound and this emphasizes the longevity of such compounds in clinics.

VRE = assay: Cell wall biosynthesis inhibition, UDPMurNAc-pp accumulation; type: cell-based
Procedure: In order to investigate whether the new installed properties of vancomycin derivative on inhibition of cell wall (peptidoglycan) biosynthesis against VRE, the accumulation of UDP-linked peptidoglycan precursor, UDP-N-acetyl-muramyl-pentadepsipeptide (UDPMurNAc-pp) was determined after treating the bacteria (VRE) with test compounds. Analysis of the cytoplasmic peptidoglycan nucleotide precursor pool was examined using VRE cells grown in 25 mL MHB. Cells were grown to an A600 nm (OD600) of 0.6 and incubated with 130 μg/mL of chloramphenicol for 15 min. Then, test compounds vancomycin (5 μM), compound 4 and physical mixture of compound 4 with zinc sulphate (5 μM) were added and incubated for another 60 min. Cells were collected and washed with sterile water to remove the antimicrobial agents and then extracted with boiling water. The cell extract was then centrifuged and the supernatant lyophilized. Then, the lyophilized powder was dissolved in 2 mL of water and pH was adjusted to 2.0 with 20% phosphoric acid. Now, the UDP-linked cell wall precursors in the solution were analyzed by RP-HPLC monitoring the UV absorbance peak at 260 nm wavelength and confirmed by HR-MS mass spectrometry.

[1] = tested on: Vancomycin-sensitive E. faecium (ATCC 19634); assay: MIC, micro-dilution broth, VSEm; type: cell-based; settings: Enterococcus faecium, ATCC19634
Procedure: (§1) Test compounds were assayed in a micro-dilution broth format. Stock solutions were made by serially diluting the compounds using autoclaved millipore water or broth media. The antibacterial activity of the compounds was determined against gram positive bactreia like methicillin-resistant S. aureus (MRSA), vancomycin-intermediate-resistant S. aureus (VISA), vancomycin-sensitive E. faecium (VSE), vancomycin-resistant E. faecalis and vancomycin-resistant E. faecium (VRE). Antibacterial activity of dipicolyl-vancomycin conjugate conjugate (4) in combination with meropemem was determined against gram-negative bacteria such as K. pneumoniae ATCC BAA2146, clinical isolates K. pneumoniae R3949, K. pneumoniae R3934, E. coli R3336 and A. baumanii R676. Bacteria, to be tested, were grown for about 10 h in the suitable media, MRSA, VISA and gram negative bacteria were grown in Yeast-dextrose broth (about 1 g of beef extract, about 2 g of yeast extract, about 5 g of peptone and about 5 g of NaCl in about 1000 mL of sterile distilled water (pH-7)). For solid media, about 5% agar was used along with above mentioned composition. VSE and VRE were cultured in Brain Heart Infusion broth (Himedia). The bacterial samples were freeze dried and stored at −80° C. About 5 μL of these stocks were added to about 3 mL of the nutrient broth or Brain Heart Infusion broth and the culture was grown for about 6 h at about 37° C. prior to the experiments. This 6 h grown culture gives about 10^9 cfu/mL and this was determined by spread plating method. The 6 h grown culture was diluted to give effective cell concentration of about 10^5 cfu/mL which was then used for determining MIC. Compounds were serially diluted, in sterile water (2-fold dilution is employed) in a way that the working concentration was about 10 μM for MRSA, and VSE while for VRE, VISA and gram negative bacteria; it was about 100 μM. About 50 μL of these serial dilutions were added to the wells of 96 well plate followed by the addition of about 150 μL of bacterial solution. The plates were then incubated at about 37° C., 150 rpm in the incubator and O.D at 620 nm was recorded at an interval of about 24 h using TECAN (Infinite series, M200 pro) Plate Reader. Each concentration had triplicate values and the whole experiment was done at least twice and the MIC value was determined by taking the average of triplicate O.D. values for each concentration and plotting it against concentration. The data was then subjected to sigmoidal fitting.

[2] = tested on: meropenem-resistant NDM-1 bacteria; assay: Combination with meropenem against NDM-1 gram negative bacteria; type: cell-based; settings: in combination with meropenem
Procedure: Test compounds were assayed in a micro-dilution broth format. Stock solutions were made by serially diluting the compounds using autoclaved millipore water or broth media. The antibacterial activity of the compounds was determined against gram positive bactreia like methicillin-resistant S. aureus (MRSA), vancomycin-intermediate-resistant S. aureus (VISA), vancomycin-sensitive E. faecium (VSE), vancomycin-resistant E. faecalis and vancomycin-resistant E. faecium (VRE). Antibacterial activity of dipicolyl-vancomycin conjugate conjugate (4) in combination with meropemem was determined against gram-negative bacteria such as K. pneumoniae ATCC BAA2146, clinical isolates K. pneumoniae R3949, K. pneumoniae R3934, E. coli R3336 and A. baumanii R676. Bacteria, to be tested, were grown for about 10 h in the suitable media, MRSA, VISA and gram negative bacteria were grown in Yeast-dextrose broth (about 1 g of beef extract, about 2 g of yeast extract, about 5 g of peptone and about 5 g of NaCl in about 1000 mL of sterile distilled water (pH-7)). […] This 6 h grown culture gives about 10^9 cfu/mL and this was determined by spread plating method. […] The plates were then incubated at about 37° C., 150 rpm in the incubator and O.D at 620 nm was recorded at an interval of about 24 h using TECAN (Infinite series, M200 pro) Plate Reader. Each concentration had triplicate values and the whole experiment was done at least twice and the MIC value was determined by taking the average of triplicate O.D. values for each concentration and plotting it against concentration. […]
Then, the antibacterial activities of Dipicolyl-vancomycin conjugate (4) is checked in combination with meropenem against New-Delhi β-lactamase producing gram negative bacteria such as K. pneumoniae BAA2146, clinical isolates K. pneumoniae R3949, K. pneumoniae R3934, E. coli R3336 and A. baumanii R676. […] Further we have also evaluated the antibacterial activity of dipicolyl-vancomycin conjugate (4) in presence of zinc sulphate, wherein it forms dipicolyl-vancomycin-zinc complex (5).

VREs ATCC 51575 = type: in vivo, E. faecalis; settings: CD-1 mice, 12 mg/kg i.p. once daily, three doses
Procedure: Female CD-1 mice 6 to 8 weeks of age and weighing 20 to 25 g were used in this study. On day −7, all mice were injected intravenously (i.v.) with 0.2 mL of 0.2% λ-carrageenan to increase their susceptibility to bacterial renal infection. λ-Carrageenan increases mice susceptibility to renal infection following i.v. injection, possibly by forming a lattice structure in renal tissue and forming a support structure for bacterial attachment and growth. Bacterial strains that fail to cause renal infection in normal mice produce significant renal infections in λ-carrageenan-treated mice. On day 0, all mice were injected i.v. with 0.2 mL of the bacterial culture (VREs ATCC 51575, 10^8 CFU/mouse) through the tail vein. Four hours after the bacterial inoculation, mice were treated intraperitoneally (i.p.) with vancomycin, compound 4 and linezolid at 12 mg/kg of body weight or 0.2 mL of saline (0.9% NaCl) control (n=5). All the test compounds or saline were administered once daily for an additional two consecutive days for a total of three doses. All mice were sacrificed on day 3. Both kidneys from each mouse were removed aseptically and homogenized in 10 mL of saline. The dilutions of the homogenate were plated onto sheep blood agar plates, which were incubated overnight at about 37° C. The bacterial titer was expressed as log10 CFU/g of kidney weight.

[3] = tested on: Methicillin-resistant S. aureus (ATCC 33591); assay: MIC, micro-dilution broth, MRSA; type: cell-based; settings: Staphylococcus aureus
Procedure: as §1

CN[C@H](CC(C)C)C(=O)N[C@H]1C(=O)N[C@@H](CC(N)=O)C(=O)N[C@H]2C(=O)N[C@H]3C(=O)N[C@H](C(=O)N[C@H](C(=O)NCCCCCCN(Cc4ccccn4)Cc4ccccn4)c4cc(O)cc(O)c4-c4cc3ccc4O)[C@H](O)c3ccc(c(Cl)c3)Oc3cc2cc(c3O[C@H]2OC(CO)[C@H](O)C(O)C2O[C@H]2CC(C)(N)[C@H](O)C(C)O2)Oc2ccc(cc2Cl)[C@H]1O (some centres unmarked) [Compound 4, Dipicolyl-vancomycin conjugate]
fold increase in MIC after 25 serial passages (MRSA): remained the same
cell wall biosynthesis inhibition (accumulation of UDPMurNAc-pp, peak at 260 nm) (VRE; 60 min): greater cell wall biosynthesis inhibition compared to vancomycin
cell wall biosynthesis inhibition (accumulation of UDPMurNAc-pp) (VRE; in presence of Zn2+ (zinc sulphate 5 μM)): enhanced cell wall biosynthesis inhibition
MIC [1]: 0.3 µM
resensitization of meropenem-resistant NDM-1 bacteria to meropenem (synergistic activity) [2]: able to resensitize
reduction of bacterial titer from infected kidneys in comparison to vancomycin (VREs ATCC 51575): reduced bacterial titer from the infected kidneys more effectively
CFU reduction compared to vehicle treated control (saline) (VREs ATCC 51575; kidneys): ~5.0 log10 CFU
MIC [3]: 0.6 µM

From patent publication US10626148B2, “Glycopeptides conjugates and uses thereof” (priority 2015, dated 2020)
